# Results published in patent US7524885B2, “Compounds that stimulate glucose utilization and methods of use” (The Governors of the University of Alberta, priority 2002, dated 2009).
# System: isolated working rat heart
# Assay: Glucose oxidation in isolated perfused working rat heart ([U-14C]glucose, 14CO2 production)
# Details: Table 2A; screening concentration 100 μM; isolated working rat heart; read-out: Glucose Oxidation (% above control)
# Protocol: Rat hearts were cannulated for isolated working heart 60 minute aerobic perfusions as described in J Pharmacol Exp Ther. 1993; 264:135-144, the entire disclosure of which is incorporated herein by reference.
# Male Sprague-Dawley rats (0.3-0.35 kg) were anesthetized with pentobarbital sodium (60 mg/kg IP) and hearts were quickly excised, the aorta was cannulated and a retrograde perfusion at 37° C. was initiated at a hydrostatic pressure of 60 mm Hg. Hearts were trimmed of excess tissue, and the pulmonary artery and the opening to the left atrium were then cannulated. After 15 min of Langendorff perfusion, hearts were switched to the working mode by clamping the aortic inflow line from the Langendorff reservoir and opening the left atrial inflow line. The perfusate was delivered from an oxygenator into the left atrium at a constant preload pressure of 11 mm Hg. Perfusate was ejected from spontaneously beating hearts into a compliance chamber (containing 1 ml of air) and into the aortic outflow line. The afterload was set at a hydrostatic pressure of 80 mm Hg. All working hearts were perfused with Krebs'-Henseleit solution containing calcium 2.5 mmol/L, glucose 5.5 mmol/L, 3% bovine serum albumin (fatty acid free, initial fractionation by heat shock, Sigma), and with 1.2 mmol/L palmitate. Palmitate was bound to the albumin as described in J Bio Chem. 1992; 267:3825-3831, the entire disclosure of which is incorporated herein by reference.
# The perfusate was recirculated, and pH was adjusted to 7.4 by bubbling with a mixture containing 95% O2 and 5% CO2.
# Spontaneously beating hearts were used in all perfusions. Heart rate and aortic pressure were measured with a Biopac Systems Inc. blood pressure transducer connected to the aortic outflow line. Cardiac output and aortic flow were measured with Transonic T206 ultrasonic flow probes in the preload and afterload lines, respectively. Coronary flow was calculated as the difference between cardiac output and aortic flow. Cardiac work was calculated as the product of systolic pressure and cardiac output.
# Measurement of Glucose Oxidation: Glucose oxidation was measured simultaneously by perfusing hearts with [U-^14C] glucose according to the procedures discussed in Saddik M, et al., J Bio Chem. 1992; 267:3825-3831. The entire disclosure of this reference is incorporated herein by reference. The total myocardial ^14CO2 production was determined at 10-min intervals from the 60-min aerobic period. Glucose oxidation rates were determined by quantitative measurement of ^14CO2 production as described in Barbour RL, et al., Biochemistry. 1984; […]. The entire disclosure of this reference is incorporated herein by reference. ^14CO2 production for the control group were compared with the ^14CO2 production for the group treated with cyclopropanecarboxylic acid, 2-[2-(2-methoxy-ethoxy)-ethoxy]-ethyl ester. Results are shown on FIG. 1 and TABLE 2A.
# The procedure of Example A for was followed except that cyclobutanecarboxylic acid, 2-[2-(2-methoxy-ethoxy)-ethoxy]-ethyl ester in 1 μM, 10 μM, 100 μM and 1000 μM amounts was added to the buffer in place of the cyclopropanecarboxylic acid, 2-[2-(2-methoxy-ethoxy)-ethoxy]-ethyl ester. The results are illustrated in FIG. 2 and TABLE 2A.
# The procedure of Example A was followed except that cyclopropanecarboxylic acid, 2-isopropoxy-ethyl ester in 1 μM, 10 μM, 100 μM and 1000 μM amounts was added to the buffer in place of the cyclopropanecarboxylic acid, 2-[2-(2-methoxy-ethoxy)-ethoxy]-ethyl ester. The results are illustrated in FIG. 3 and TABLE 2A.
# The procedure of Example A was followed except that various cyclobutanecarboxylic acid derivatives, cyclopropanecarboxylic acid derivatives and cyclobutanecarboxylic acid in the amounts of 100 μM or 1000 μM was added to the buffer in place of the cyclopropanecarboxylic acid, 2-[2-(2-methoxy-ethoxy)-ethoxy]-ethyl ester.
row,Structure (SMILES),activation at 100 µM [%]
1,"CC(C)OCCOC(=O)[C@@H]1C[C@H]1c1ccccc1 (racemic) [Compound 25MM078, trans-2-Phenyl-cyclopropanecarboxylic acid 2-isopropoxy-ethyl ester]",200
2,"COCCOCCOCCOC(=O)C1CC1 [Compound 1MM054, Cyclopropanecarboxylic acid 2-[2-(2-methoxy-ethoxy)-ethoxy]-ethyl ester]",102
3,"COCCOCCOCCOC(=O)C1CCC1 [Compound 3MM056, Cyclobutanecarboxylic Acid, 2-[2-(2-methoxy-ethoxy)-ethoxy]-ethyl ester]",54
4,"O=C(OCCOCCOCc1ccccc1)C1CC1 [Compound 4MM057, Cyclopropanecarboxylic acid 2-(2-benzyloxy-ethoxy)-ethyl ester]",104
5,"O=C(OCCOCCOCc1ccccc1)C1CCC1 [Compound 6MM059, Cyclobutanecarboxylic acid 2-(2-benzyloxy-ethoxy)-ethyl ester]",68
6,"CCCCOCCOCCOC(=O)C1CCC1 [Compound 7MM060, Cyclobutanecarboxylic acid, 2-(2-butoxy-ethoxy)-ethyl ester]",65
7,"CN(C)CCOCCOC(=O)C1CC1 [Compound 9MM062, Cyclopropanecarboxylic acid 2-(2-dimethylamino-ethoxy)-ethyl ester]",77
8,"CN(C)CCOCCOC(=O)C1CCC1 [Compound 10MM063, Cyclobutanecarboxylic acid 2-(2-dimethylamino-ethoxy)-ethyl ester]",41
9,"CCCCCCOCCOCCOC(=O)C1CC1 [Compound 11MM064, Cyclopropanecarboxylic acid 2-(2-hexyloxy-ethoxy)-ethyl ester]",83
10,"CCCCCCOCCOCCOC(=O)C1CCC1 [Compound 12MM065, Cyclobutanecarboxylic acid 2-(2-hexyloxy-ethoxy)-ethyl ester]",0
11,"COCCOCCOC(=O)C1CC1 [Compound 13MM066, Cyclopropanecarboxylic acid 2-(2-methoxy-ethoxy)-ethyl ester]",20
12,"COCCOCCOC(=O)C1CCC1 [Compound 14MM067, Cyclobutanecarboxylic acid 2-(2-methoxy-ethoxy)-ethyl ester]",50
13,"CCOCCOC(=O)C1CC1 [Compound 15MM068, Cyclopropanecarboxylic acid 2-ethoxy-ethyl ester]",416
14,"CCOCCOC(=O)C1CCC1 [Compound 16MM069, Cyclobutanecarboxylic acid 2-ethoxy-ethyl ester]",162
15,"CC(C)OCCOC(=O)C1CC1 [Compound 17MM070, Cyclopropanecarboxylic acid 2-isopropoxy-ethyl ester]",208
16,"CC(C)OCCOC(=O)C1CCC1 [Compound 18MM071, Cyclobutanecarboxylic acid 2-isopropoxy-ethyl ester]",97
17,"O=C(OCCOCCOC(=O)C1CC1)C1CC1 [Compound 19MM072, Cyclopropanecarboxylic acid, 2-(2-cyclopropanecarbonyloxy-ethoxy)-ethyl ester]",97
18,"O=C(OCCOCCOC(=O)C1CCC1)C1CCC1 [Compound 20MM073, Cyclobutanecarboxylic acid, 2-(2-cyclobutanecarbonyloxy-ethoxy)-ethyl ester]",243
19,"O=C(OCCOCCOCCOC(=O)C1CC1)C1CC1 [Compound 21MM074, Cyclopropanecarboxylic acid, 2-[2-(2-cyclopropanecarbonyloxy-ethoxy)-ethoxy]-ethyl ester]",228
20,"O=C(OCCOCCOCCOC(=O)C1CCC1)C1CCC1 [Compound 22MM075, Cyclobutanecarboxylic Acid, 2-[2-(2-cyclobutanecarbonyloxy-ethoxy)-ethoxy]-ethyl ester]",184
21,"O=C(OCCN(CCOC(=O)C1CC1)CCN(CCOC(=O)C1CC1)CCOC(=O)C1CC1)C1CC1 [Compound 23MM076, Cyclopropanecarboxylic acid 2-[{2-[bis(2-cyclopropanecarbonyloxy-ethyl)-amino]-ethyl}-(2-cyclopropanecarbonyloxy-ethyl)-amino] ethyl ester]",274
22,"CC(C)OCCNC(=O)C1CC1 [Compound 24MM077, Cyclopropanecarboxylic acid (2-isopropoxy-ethyl)-amide]",217

# Same assay, conditions: Table 2A; screening concentration 1000 μM; isolated working rat heart; read-out: Glucose Oxidation (% above control)
row,Structure (SMILES),activation at 1000 µM [%]
1,"O=C(O)CNC(=O)C1CCC1 [Compound 2MM055, (Cyclobutanecarbonyl-amino)-acetic acid]",58
2,"CC(NC(=O)C1CC1)C(=O)O (stereo not shown) [Compound 5MM058, 2-(Cyclopropanecarbonyl-amino)-propionic acid]",40

# Same assay, conditions: Table 2B; screening concentration 100 μM; isolated working rat heart; read-out: Glucose Oxidation (% above control)
row,Structure (SMILES),activation at 100 µM [%]
1,"CCOCCOC(=O)C1(c2ccccc2)CC1 [Compound 27MM080, 1-Phenyl-cyclopropanecarboxylic acid 2-ethoxy-ethyl ester]",148
2,"CCOCCOC(=O)C1(C)CC1 [Compound 28MM081, 1-Methyl-cyclopropanecarboxylic acid, 2-Ethoxy-ethyl ester]",121
3,"CCOCCOC(=O)C1C(C)(C)C1(C)C [Compound 29MM082, 2,2,3,3-Tetramethyl-cyclopropanecarboxylic acid, 2-Ethoxy-ethyl ester]",110
4,"COCCOC(=O)C1CC1 [Compound 30MM083, Cyclopropanecarboxylic acid, 2-Methoxy-ethyl ester]",197
5,"CCOCCOC(=O)C1(C(=O)OCCOCC)CC1 [Compound 31MM084, Cyclopropane-1,1-dicarboylic acid bis-(2-ethoxy-ethyl) ester]",197
6,"CCOCCOC(=O)C1CC1C (stereo not drawn) [Compound 32MM085, Trans-2-methyl-cyclopropanecarboylic acid 2-ethoxy-ethyl ester]",150
7,"CCOCCOC(=O)C1(C)CC1(Cl)Cl (stereo not shown) [Compound 33MM086, 2,2-Dichloro-1-methyl-cyclopropanecarboxylic acid 2-ethoxy-ethyl ester]",117
8,"CCOCCOC(=O)[C@]1(/C=C/c2ccccc2)C[C@H]1c1ccccc1 [Compound 34MM087, (1S,2S)-2-phenyl-1-styrl-cyclopropanecarboxylic acid 2 ethoxy-ethyl ester]",112
9,"O=C(OC[C@H]1O[C@H](OC(=O)C2CC2)[C@H](OC(=O)C2CC2)[C@@H](OC(=O)C2CC2)[C@@H]1OC(=O)C1CC1)C1CC1 [Compound 35MM088, 1,2,3,4,6-penta-O-(cyclopropanecarbonyl)-D-glucopyranose]",205
10,"Cc1ncsc1CCOC(=O)C1CC1 [Compound 36MM089, Cyclopropanecarboxylic acid 2-(4-methyl-thiazol-5-yl)-ethyl ester]",202
11,"COC(=O)CSC(=O)C1CC1 [Compound 37MM090, Cyclopropanecarbonylsulfanyl-acetic acid methyl ester]",251
12,"CC(=O)NCCSC(=O)C1CC1 [Compound 38MM091, Cyclopropanecarbothioic acid S-(2-acetylamino-ethyl) ester]",176
13,"O=C(OCCN1CCOCC1)C1CC1 [Compound 39MM092, Cyclopropanecarboxylic acid 2-morpholin-4-yl-ethyl ester]",233
